By pKd is commonly meant −log10 of the Kd, conventionally taken in molar units. High values mean a low Kd, low ones a high Kd.

pKd: −log10 of the molar value.

Test [1] concerns the target EmbC^CT (C-terminal domain of M. tuberculosis EmbC, residues 719–1094) (Mycobacterium tuberculosis, UniProt P9WNL5). As to the kind of experiment: Solution binding assay by intrinsic tryptophan fluorescence, wild-type EmbC^CT. The note with it: wild-type EmbC^CT 20 µM, 50 mM KH2PO4 pH 7.9, 300 mM NaCl; single site saturation fit. As to the method:
Intrinsic tryptophan fluorescence (ITF) experiments were carried out using a PTI QuantaMaster 40 spectrofluorimeter, recording data with the FeliX32 software package (PTI, Birmingham, New Jersey, USA). The excitation wavelength was set to 294 nm and the fluorescence emission (Femission) was recorded between 300–400 nm for each ligand aliquot added to a 200 µl solution containing 20 µM EmbC^CT in 50 mM KH2PO4 (pH 7.9), 300 mM NaCl. […] The change in fluorescence emission (ΔFemission) was calculated by subtracting Femission (recorded 2 min after each ligand addition) from Femission^max, and the data was then plotted against ligand concentration, [L] (3 independent experiments). A plot of ΔFemission at λ = 338 nm vs. [L] was fitted to the saturation binding equation using GraphPad Prism software: [drawing 1]

Test [2] has as its system Araf transferase (isolated mycobacterial membranes). As to conditions: incubated with [14C]-labelled Araf-donor DPA and isolated mycobacterial membranes; cited from earlier work.

Sequence of EmbC^CT (C-terminal domain of M. tuberculosis EmbC, residues 719–1094) (P9WNL5 719-1094 limits assumed): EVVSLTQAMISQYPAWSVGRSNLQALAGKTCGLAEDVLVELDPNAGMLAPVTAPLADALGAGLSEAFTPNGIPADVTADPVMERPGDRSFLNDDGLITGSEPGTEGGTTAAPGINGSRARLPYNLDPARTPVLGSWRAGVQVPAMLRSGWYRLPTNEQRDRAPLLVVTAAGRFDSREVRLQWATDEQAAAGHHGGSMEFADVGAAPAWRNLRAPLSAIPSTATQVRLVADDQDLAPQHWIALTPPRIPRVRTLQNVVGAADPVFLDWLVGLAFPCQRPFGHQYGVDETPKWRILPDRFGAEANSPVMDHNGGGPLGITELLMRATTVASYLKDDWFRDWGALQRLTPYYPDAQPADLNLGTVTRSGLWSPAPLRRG

For the compound `CCCCCCCCO[C@H]1O[C@H](CO[C@H]2O[C@H](CO[C@H]3O[C@H](CO)[C@@H](O)[C@@H]3O)[C@@H](O)[C@@H]2O)[C@@H](O)[C@@H]1O` [Ara(1→5)2Ara-O-C8, [α-D-Araf-(1→5)]2-α-D-Araf-O-(CH2)7CH3], in test [1], the Fmax was 0.105 and the negative-log Kd (pKd) was 4.60.

Consider `CCCCCCCCO[C@H]1O[C@H](CO[C@H]2O[C@H](CO[C@H]3O[C@H](CO[C@H]4O[C@H](CO[C@H]5O[C@H](CO)[C@@H](O)[C@@H]5O)[C@@H](O)[C@@H]4O)[C@@H](O)[C@@H]3O)[C@@H](O)[C@@H]2O)[C@@H](O)[C@@H]1O` [Ara(1→5)4Ara-O-C8, [α-D-Araf-(1→5)]4-α-D-Araf-O-(CH2)7CH3], for which the Fmax in test [1] is 0.157.

Take `CO[C@H]1O[C@H](CO[C@H]2O[C@H](CO)[C@@H](O)[C@@H]2O)[C@@H](O)[C@@H]1O` [Ara(1→5)Ara-O-C1, α-D-Araf-(1→5)-α-D-Araf-O-CH3]: in test [1], the Fmax is recorded as 0.26 and the pKd is 4.96.

`CCCCCCCCO[C@H]1O[C@H](CO[C@H]2O[C@H](CO)[C@@H](O)[C@@H]2O)[C@@H](O)[C@@H]1O` [Ara(1→5)Ara-O-C8, α-D-Araf-(1→5)-α-D-Araf-O-(CH2)7CH3] came in with an Fmax in test [1] of 0.22. The “acceptor activity (in words)” value in test [2] was “potent acceptor mimics”.
